Data as given in patent US4948807A, “Phenyl carbamates” (priority 1985, dated 1990).
Like-named read-outs stand apart in the source and are kept apart here.

Key:
[1] = in vivo; details: for absorption from the gastro-intestinal tract compared with physostigmine: from oral versus s.c. LD50; for protection by atropine against lethality: atropine pretreatment; for selectivity ratio / LD50 at 3 h: mouse, in vivo
Procedure: Mice were given one of at least three different doses of each compound, orally or subcutaneously, a minimum of 10 mice allotted to each dose. The number of animals which died at each dose within 3 hours was determined.
This experiment was repeated after the animals had been pretreated with atropine sulphate, which blocks both peripheral and central muscarinic receptors.
What is important is the safety of the drugs and the presence and severity of side effects that may occur at therapeutic doses. A commonly-used measure of drug safety is the therapeutic index--or LD50 /ED50 [formula]
It is assumed that the therapeutic effect of these anticholinesterase agents results from an elevation of brain cholinergic activity. This in turn, should be related to the degree of inhibition of acetylcholinesterase. For the purpose of the computation of the denominator of the therapeutic ratio, there is used the dose of drug that inhibits the activity of acetylcholinesterase by 50%. […] The numerator is the dose found to kill 50% of the animals within […] of a subcutaneous injection.

[2] = molecular target: T1, acetylcholinesterase (Mus musculus, UniProt P21836); assay: biochemical; format: biochemical
T1 construct: A solubilized preparation of acetylcholinesterase was prepared from mouse whole brain (minus cerebellum); from tissue; host or cells: mouse whole brain (minus cerebellum), membrane pellet solubilized with 1% Triton
T1 sequence (P21836 32-614): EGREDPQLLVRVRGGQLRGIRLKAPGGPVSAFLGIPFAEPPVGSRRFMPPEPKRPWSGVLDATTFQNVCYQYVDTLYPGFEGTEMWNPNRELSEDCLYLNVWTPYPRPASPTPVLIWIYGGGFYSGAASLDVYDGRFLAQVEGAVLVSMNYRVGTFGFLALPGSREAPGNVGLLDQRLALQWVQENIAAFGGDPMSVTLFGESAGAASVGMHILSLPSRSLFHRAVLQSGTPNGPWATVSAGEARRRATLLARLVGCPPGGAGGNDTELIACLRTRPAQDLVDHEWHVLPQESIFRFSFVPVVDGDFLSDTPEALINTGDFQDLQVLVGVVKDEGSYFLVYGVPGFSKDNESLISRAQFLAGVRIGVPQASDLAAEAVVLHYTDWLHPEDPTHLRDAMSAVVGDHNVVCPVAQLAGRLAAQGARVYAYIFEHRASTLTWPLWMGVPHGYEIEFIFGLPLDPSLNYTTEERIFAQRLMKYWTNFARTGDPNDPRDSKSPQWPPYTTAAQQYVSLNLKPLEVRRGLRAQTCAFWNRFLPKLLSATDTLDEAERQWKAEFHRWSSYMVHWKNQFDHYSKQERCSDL
Procedure: A solubilized preparation of acetylcholinesterase was prepared from mouse whole brain (minus cerebellum). The brain was homogenized with (100 mg/ml) phosphate buffer; pH 8.0, centrifuged, the supernatant discarded, and the pellet mixed with a similar volume as above of buffer pH 8.0 plus 1% Triton; mixed, centrifuged and the supernatant which contained most of the solubilized enzyme, was used for the subsequent determinations of anticholinesterase activity.
The activity of the enzyme (rate of hydrolysis of substrate, acetylthiocholine) was measured using at least 4 different concentrations of substrate, and at least 3 different concentrations of each inhibitor. The enzyme was incubated with inhibitor for periods ranging for 2-180 mins. at 37° C., substrate was then added, and its rate of hydrolysis measured by the spectrophotometric method of Ellman et al. (1961).

[3] = system: brain acetylcholinesterase; details: for Relative potency to physostigmine after oral administration / % cholinesterase inhibition 3 hours after s.c. administration / Relative potency to physostigmine after subcut. (s.c.) administration: mouse brain; for Relative potency to physostigmine after oral administration / Relative potency to physostigmine after subcut. (s.c.) administration: physostigmine = 100; for relative in vivo activity compared to physostigmine versus in vitro data: comparison of Table 1 with Table 2
Procedure: The effect of each compound on brain acetylcholinesterase in vivo was measured, after subcutaneous or oral administration to mice. Animals were sacrificed, at different times ranging from 0.25-8 hours after drug administration. The brain was rapidly removed, and the enzyme acetylcholinesterase extracted and solubilized with 0.1% Triton, and its ability to hydrolyse acetylthiocholine assessed as described above (in vitro experiments), in comparison with the enzyme removed from mice injected with normal saline.

[4] = system: respiratory depressant effects of morphine; format: in vivo; details: rabbits, depending on drug and dose
Procedure: Different doses of the carbamate compounds were injected intravenously with morphine in rabbits Respiration rate, arterial blood gas tensions and pH were monitored continuously before and after drug administration for 4-5 hours. In another series of experiments the effect of the anticholinesterase drugs was assessed on the analgesic effect of opiates in rabbits after application of a nociceptive stimulus, i.e. electrical stimulation of the sciatic nerve.

[5] = Degree of protection afforded by pretreatment with atropine, ratio of LD50 after pretreatment with atropine sulphate 5 mg/kg to LD50 of drug alone
[6] = Ratio whose head is drawing 10 (Table 3; oral LD50 compared with s.c. LD50), mice, oral versus s.c.
[7] = sc, Therapeutic ratio LD50/ED50 s.c., mice, ED50 = dose inhibiting brain acetylcholinesterase by 50%
[8] = incubation of enzyme with inhibitor, 37° C.
[9] = parenteral administration, in words

SMILES | absorption from the gastro-intestinal tract compared with physostigmine [1] | protection by atropine against lethality ([1]; mice, in words) | selectivity ratio [1, 5] | selectivity ratio [1, 6] | LD50 at 3 h ([1]; sc) [µmol/kg] | selectivity ratio [1, 7] | IC50 [2] [nM] | Time of peak activity [2, 8] [min] | duration of significant brain enzyme inhibition (>30%) ([3]; at ED50 dose) | Relative potency to physostigmine after oral administration [3] | % cholinesterase inhibition 3 hours after s.c. administration [3] [%] | Relative potency to physostigmine after subcut. (s.c.) administration [3] | duration of brain acetylcholinesterase inhibition compared with physostigmine or miotine [3, 9] | relative in vivo activity compared to physostigmine versus in vitro data [3] | duration of significant antagonism of the respiratory depressant effects of morphine [4] [h] | also measured
CCCN(C)C(=O)Oc1cccc(C(C)N(C)C)c1 (stereo not drawn) [RA4, N-methyl, N-propyl-3[1-(dimethylamino)ethyl]phenyl carbamate] | more efficiently absorbed from the gastro-intestinal tract than is physostigmine | considerably greater protection | 4.9 | 1.7 | 72 | 10 | 1700 | 60 | more than 3 hours | 29 | 25 | 13 | significantly longer duration |  |  | bioavailability after oral administration compared with physostigmine ([3]; in words): better bioavailability after oral administration than physostigmine
CCCCNC(=O)Oc1cccc(C(C)N(C)C)c1 (stereo not drawn) [RA5, N-butyl-3-[1-(dimethylamino)ethyl]phenyl carbamate] |  | considerably greater protection | 5.8 | 5 | 19 | 7.6 | 76 | 120 | more than 3 hours | 29 | 30 | 36 | significantly longer duration | relatively more active in vivo compared to physostigmine than one would expect from the in vitro data |  | 
CCNC(=O)Oc1cccc(C(C)N(C)C)c1 (stereo not drawn) [RA6, N-ethyl-3[1-(dimethylamino)ethyl]phenyl carbamate] | more efficiently absorbed from the gastro-intestinal tract than is physostigmine |  | 2.6 | 2.1 | 96 | 11.9 | 400 | 120 | more than 3 hours | 19 | 35 | 11 | significantly longer duration | relatively more active in vivo compared to physostigmine than one would expect from the in vitro data | 3 to 5 | brain enzyme inhibition after 7 hours ([3]; at ED50 dose, 7 hours): 36%; bioavailability after oral administration compared with physostigmine ([3]; in words): better bioavailability after oral administration than physostigmine
CCN(C)C(=O)Oc1cccc(C(C)N(C)C)c1 (stereo not drawn) [RA7, N-ethyl, N-methyl-3[1-(dimethylamino)ethyl]phenyl carbamate] | more efficiently absorbed from the gastro-intestinal tract than is physostigmine | considerably greater protection |  |  | 46 |  |  |  |  |  |  |  |  |  |  | Time of peak activity [2]: 90 min; brain enzyme inhibition after 7 hours ([3]; mouse, in vivo): 36%; duration of brain acetylcholinesterase inhibition compared with physostigmine or miotine ([3]; mouse, in vivo): significantly longer duration; duration of significant brain enzyme inhibition (>30%) ([3]; mouse, in vivo): more than 3 hours
CCN(CC)C(=O)Oc1cccc(C(C)N(C)C)c1 (stereo not drawn) [RA8, N,N-diethyl-3-[1-(dimethylamino)ethyl]phenyl carbamate] |  |  |  |  | > 568 | > 10 | 35000 | 30 | more than 3 hours | 5 | 32 | 2 | significantly longer duration | relatively more active in vivo compared to physostigmine than one would expect from the in vitro data |  | ED50 after oral administration compared with S.C. injection ([3]; oral versus s.c.): the same as that after S.C. injection
CC(c1cccc(OC(=O)N(C)C)c1)N(C)C (stereo not drawn) [RA10] |  | considerably greater protection | 5 | 9.7 | 14 | 12.7 | 27 | 120 |  | 92 | 7 | 81 |  | relatively more active in vivo compared to physostigmine than one would expect from the in vitro data | 3 to 5 | therapeutic ratio (safety margin) compared with physostigmine ([1]; mice, s.c., in words): significantly higher than of physostigmine
CC(c1cccc(OC(=O)N2CCOCC2)c1)N(C)C (stereo not drawn) [RA11] |  |  |  |  |  |  | > 20000 | 30 |  |  |  |  |  |  |  | 
CC(c1cccc(OC(=O)NC2CCCCC2)c1)N(C)C (stereo not drawn) [RA12] |  |  | 3.8 | 3.6 | 42 | 5.8 | 93 | 120 | more than 3 hours | 17 | 37 | 13 |  |  |  | 
CC(C)NC(=O)Oc1cccc(C(C)N(C)C)c1 (stereo not drawn) [RA13] | more efficiently absorbed from the gastro-intestinal tract than is physostigmine | considerably greater protection | 4.5 | 1.1 | 65 | 1.6 | 12000 | 120 |  | 5 |  | 2 |  |  |  | 
C=CCNC(=O)Oc1cccc(C(C)N(C)C)c1 (stereo not drawn) [RA14, N-allyl-3-[1-(dimethylamino)ethyl]phenyl carbamate] |  | considerably greater protection | 8 | 4.4 | 69 | 11.5 | 430 | 120 | more than 3 hours | 22 | 35 | 15 | significantly longer duration | relatively more active in vivo compared to physostigmine than one would expect from the in vitro data | 3 to 5 | selectivity ratio ([1]; decrease of acute toxicity (lethality) by the antidote atropine, mice, atropine): > 8
